Each structure is given as a SMILES string.

With `CN1CCN(c2cccc(Nc3nc4c(-c5cnn(-c6ccc(F)cc6)c5)cccn4n3)c2)CC1`, the melting point (as a rule, the temperature of the solid-liquid transition) lay within 216 to 218 °C. The compound `CN(C)Cc1ccc(C=CC(=O)O)s1` gave a melting point of 224 to 225 °C.

Turning to `Nc1ccccc1C(=O)NCCN1CCC2(CC1)C(=O)NCN2c1ccc(F)cc1`, the melting point turned out to be 195 °C. Turning to `CCCn1c(=O)c(-c2ccccc2)c2n(c1=O)CCCS2(=O)=O`, the melting point was in the range of 179 to 180 °C. `CCCS(=O)(=O)c1cc([C@H]2C[C@H](c3cc(OC)c(OC)c(OC)c3)CO2)cc(OC)c1OCc1ccccc1` (relative stereo) had a melting point of 176 to 177 °C. On to `COc1ccccc(N(C)S(=O)(=O)c2ccc(C)cc2)c1=O`, for which the melting point is 94.5 °C.

As for `CCCN(CCC)C(=O)CNc1nc(-c2ccccc2)nc(CC)c1C`, the melting point was in the range of 83 to 84 °C. Compound `O=[N+]([O-])c1cnc(Sc2n[nH]c(-c3ccccc3)n2)s1` yielded a melting point of 155 to 157 °C.

In turn, `Nc1cccc(-c2ccc(CCN3CCN(C(=O)NC4CCCCC4)CC3)cc2)n1` came in with a melting point of 180 to 182 °C. For the compound `CS(=O)(=O)c1ccc(-c2cnn(Cc3ccncc3)c(=O)c2-c2ccc(F)cc2)cc1`, the melting point was 153 to 156 °C. For `CCOC(=O)c1ncc2[nH]c3ccc(NC(C)=O)cc3c2c1C` the value was 273 to 278 °C; for `CC1CC2C3CC(F)C4=CC(=O)C=CC4(C)C34OC4CC2(C)C1(O)C(=O)CO` (stereo not given), 241 to 242 °C; for `Nc1ccc(S(=O)(=O)Nc2cccc3[nH]ccc23)cc1`, 215 °C. `CCc1c(C(=O)c2cc(C)cc(C)c2)n(CC=CC(=O)OC)c(=O)[nH]c1=O` yielded a melting point of 201 to 202 °C.

The compound `COc1ccccc1NS(=O)(=O)c1ccc(NC2=C(Cl)C(=O)c3ccccc3C2=O)cc1` gave a melting point of 198 to 201 °C. For `CCC(C)N1CCc2cnc3ccnn3c21` (stereo not given), the melting point is 199 °C. On to `N=C(N)NCCc1ccc(OCCC2Oc3ccccc3N(Cc3cccc(OCc4ccccc4)c3)C2=O)cc1` (stereo not given), for which the melting point was in the range of 100 to 105 °C.

In the case of `COc1cc(OCC(CO)CO)c(C=CC(=O)c2ccc(C(=O)O)cc2)cc1-c1cccs1`, the melting point is 219 to 220 °C. Under `Cc1ccc(S(=O)(=O)Oc2ccccc2NC(=O)c2cccc3[nH]ccc23)cc1` stands 135 °C. For `Cc1cc(C(=O)O)ccc1C1=CCCCC1`, the melting point lay in the range of 173 to 175 °C.

In turn, `Cc1cc2[nH]cc(CSCCN3CC=C(c4ccccc4)CC3)c2cc1C` came in with a melting point of 123 to 124 °C. For `CCCCCC(=O)c1ccc(C(=O)Nc2ccc3cc(CN4CCCC4)cnc3c2C)cc1` the value was 175 °C.

`CCCc1nc(C)n2[nH]c(=O)nc2c1Br` yielded a melting point of 221 °C. Take `COc1ccc(C(=NOCc2ccc(OCc3nc(-c4ccccc4)oc3C)cc2)C(=O)O)cc1`: the melting point lay within 183 to 184 °C. For `CS(=O)(=O)c1ccc(C(=O)c2cc(Cl)ccc2N)cc1` the value was 176 to 177 °C. In turn, `CC(CNC(=O)c1ccc(-c2ccc(Cl)cc2)cc1F)c1ccc(CN2CCCC2)cc1` (stereo not given) displayed a melting point of 119 to 121 °C. `CC(C)(C)N1CC(=O)Nc2ccc(I)cc2C1=O` gave a melting point of 230 to 232 °C. `O=S(=O)(c1ccc(O)cc1)c1ccc(O)c2ccccc12`: the melting point lay in the range of 198 to 199 °C. Under `CCN1C=C(C(=O)O)C(=O)CC1c1ccc(OC)c(OC)c1` (stereo not given) stands 182 to 183 °C; under `C=C(C)[C@H](C(=O)OC(c1ccccc1)c1ccccc1)N1C(=O)[C@@H]2N=C(c3ccccc3)O[C@@H]21`, 116 to 118 °C; under `COc1ccnc(CCc2nc3cc(-c4ccncc4)cnc3[nH]2)c1`, 237 to 238 °C.

As to `CCOC(=O)C1=C(C)NC(C)=C(C(=O)OCC)C1c1ccc(F)c(Br)c1`, the melting point fell in the range of 118 to 119 °C.

`Nc1ccccc1Cn1cc(C(F)(F)F)ccc1=O` returned a melting point of 83.4 to 85.3 °C. For `O=C(Nc1ccc(-n2nc(C(F)(F)F)cc2C(F)(F)F)cc1)c1ccc(F)c(Cl)c1` the value was 138 to 139 °C; for `O=c1ccn(C2OC(CO)C(O)C2Cl)c(=O)[nH]1` (stereo not given), 206 to 207 °C. Under `CC(C)(C)C(=O)Nc1nc(OCCCCOCc2ccccc2)ccc1C=O` stands 82 to 84 °C; under `CCOC(=O)Nc1cccc2c1CN(C)CC2c1ccccc1` (stereo not given), 174 °C. In turn, `CC1(C)OC(=O)Nc2ccc(-c3cc(Br)cc(OC(F)(F)F)c3)cc21` registered a melting point of 214 to 216 °C. For `CCn1nnc(C(C=CC=O)=C(c2ccc(F)cc2)c2ccc(F)cc2)n1` the value was 117 to 120 °C; for `CC(C)(C)C(=O)C(C(Cl)C(Cl)(Cl)Cl)n1cncn1` (stereo not given), 111 to 113 °C. For `CN1CCN(CCc2nc3cc(Br)c4ccccc4c3n2C)CC1` the value was 151 to 157 °C; for `CC(C)(Nc1ccccc1N)C(=O)O`, 130 to 132 °C. Under `O=c1[nH]c2cc(I)ccc2n(CP(=O)(O)O)c1=O` stands 295 to 297 °C; under `CC(c1ccc(Cl)cc1)N1CCNC1=NC#N` (stereo not given), 133 °C.

Compound `CCC(O)(c1c(C(C)C)nn2ccccc12)C(C)C` (stereo not given) returned a melting point of 96 to 98 °C. As to `CC1(C)CC(=C(c2ccc(O)cc2)c2ccc(-c3ccoc3)cc2)CC(C)(C)C1`, the melting point is 128 to 129 °C. For `CCn1c(=O)c(=O)[nH]c2cc(-n3cccc3)c([N+](=O)[O-])cc21` the value was 248 to 250 °C. Under `O=C(CC(CC1CCCCC1)(C(=O)O)C(=O)O)c1ccco1` stands 127 to 130 °C; under `CC(=O)Oc1c2ccc(C(F)(F)F)cc2c(OC(C)=O)c2cc3ccccc3cc12`, 285 to 288 °C; under `CCOCc1nc2c(N)nc3ccccc3c2n1CCNC(=O)OC(C)(C)C`, 201 to 202 °C. For `O=C1CN2CCC1(Cc1ccccc1)CC2` the value was 111 °C; for `CCc1cc2c3ccccc3c(C=O)cc2c2ccccc12`, 138 to 139 °C; for `CCc1cccc(C)c1CNc1cc(C(=O)N(C)C)cc2[nH]c(C)nc12`, 228 to 230 °C. In the case of `CCOC(=O)C1C(=O)NC(=O)CC1c1ccc(F)cc1` (stereo not given), the melting point was in the range of 97 to 99 °C.

On to `CC(=O)OCc1nc2cc(Cl)c(C)cc2c(=O)[nH]1`, for which the melting point was in the range of 220 to 225 °C. With `C=CCN(CC=C)c1ccc(C(C)N(O)C(N)=O)cc1` (stereo not given), the melting point fell in the range of 112 to 114 °C. Under `COc1ccc(C(=O)c2[nH]c3ccc(Cl)cc3c2CC(=O)O)cc1` stands 232 to 235 °C; under `CCCC1(CC(=O)O)OCCc2c1[nH]c1c(C)ccc(C(=O)NC)c21` (stereo not given), 89 to 91 °C; under `Clc1ccc(C2CC(n3cncn3)c3ccccc3N2)cc1` (stereo not given), 150 to 152 °C. For `CCCC1(CCC)Oc2c(ccc(O)c2C(C)=O)-c2ccccc21` the value was 83 to 83.5 °C. Consider `N#Cc1c(N2CCCC2)c(F)cc2c(=O)c(C(=O)O)cn(C3CC3)c12`, for which the melting point was in the range of 274 to 276 °C.

The compound `COC(=O)C[C@H](O)C[C@H](O)CCc1c(-c2ccc(F)cc2)c(-c2ccccc2)c(C(=O)NCc2ccc(F)cc2)n1C(C)C` had a melting point of 49 to 50 °C. `COC1(c2ccccc2)C=CC(=O)C=C1` gave a melting point of 89 °C. `CCN1CCC2(CC1)COc1cc3c(cc12)N(C(=O)c1ccc(-c2ccc(C(=O)NNC(C)=O)cc2C)cc1)CC3` displayed a melting point of 154 to 157 °C. `CCOC(=O)C1(C)C(=O)Nc2cc(NC(=O)c3ccncc3)ccc21` (stereo not given) came in with a melting point of 222 to 224 °C. `CCCCNC(=O)Oc1cccc(NC(=O)CC(C)(OCC)OCC)c1` came in with a melting point of 130 °C. Under `COc1cccc(Oc2ccc3ccc(N)nc3n2)c1` stands 160 °C. For `CCCCCCCCCCCCOC(C)c1ccc(C(=O)O)cc1` (single isomer, unassigned; (+)) the value was 49.5 to 50 °C; for `O=C(O)CN1C(=O)C(=Cc2ccc(C(=O)O)cc2)SC1=S`, more than 300 °C; for `CC(C)CCNC(=O)CNC(=O)C(Br)Cc1ccccc1` (stereo not given), 110 °C. Under `CC(CCN)P(C)(=O)O` (stereo not given) stands 68 to 75 °C. `Clc1ccc(C2CN3C(=N2)Sc2ccccc23)cc1` (stereo not given) gave a melting point of 143 °C. Under `CC1(C(O)(Cc2ccc(F)cc2)Cn2cncn2)CC1(F)F` (stereo not given) stands 114 °C; under `CON=Cc1cc(-n2c(=O)cc(C(F)(F)F)n(C)c2=O)c(F)cc1Cl`, 141 to 142 °C; under `O/N=C1\CCCc2c1c1ccccc1n2-c1ccc(OCc2ccccc2)cc1`, 241 to 243 °C. Under `CSC1CC(=O)N1CC(=O)CCCCCCCc1ccccc1` (stereo not given) stands 48 to 51 °C; under `COC(=O)C(C)(c1ccc([N+](=O)[O-])cc1)c1cc(C)c(C(=O)c2ccc(Cl)cc2)n1C` (stereo not given), 181 to 182 °C. For `Cc1nc2c(F)c(F)cc(F)c2s1` the value was 91 to 92 °C; for `COc1ccc(-n2ncc(C(N)=O)c2N)cc1`, 213 to 215 °C; for `CNC(=O)NCCn1c(-c2ccc(CN3C(C)COCC3C)cc2)csc1=Nc1ccc(F)c(C)c1` (stereo not given), 116 to 119 °C. Compound `CO/C=C(/C(=O)OC)c1ccccc1Oc1cc(Cl)ncn1` gave a melting point of 94 to 95 °C.

With `Cc1ccc2c(Cl)c3ccccc3nc2c1`, the melting point lay within 117 to 118 °C. `Cc1cnc2n1N=C(c1ccc(F)cc1)c1cc3c(cc1C2)OCO3`: the melting point came to 190 °C. As to `CC(C)(C)c1cc(C=CC(=O)NN)cc(C(C)(C)C)c1O`, the melting point amounted to 166 °C.

For the compound `COCCNc1c([N+](=O)[O-])cc(C(F)(F)F)c2sc(=O)sc12`, the melting point is 96 to 98 °C. As for `Cc1cccc(C)c1NC(=O)c1cc(C)n(C)n1`, the melting point was 155 °C. Under `CCc1c(CC(=O)NCCCCCC(=O)NCCc2ccc(NS(C)(=O)=O)cc2)ccc(OC)c1OC` stands 110 to 112 °C; under `CN1C(=O)Cc2cc(CCCl)ccc21`, 136 °C; under `CCCNC(=O)[C@H](Cc1ccccc1)NC(=O)CNC(=O)OC(C)(C)C`, 166 to 168 °C. `O=C(O)c1ccc(NCCCCc2cccs2)cc1` returned a melting point of 137 to 140 °C.

The values are drawn from a melting point compilation (Tetko et al.; mined from patent text by program, amines drawn as free bases though some values may be those of a salt).
